Reference: patent publication US12490739B2, “Synergistically effective fungicide composition comprising choline phosphonate and at least one additional fungicide” (BELCHIM CROP PROTECTION NV, priority 2019, dated 2025)

Assays:
Type in all cases: in vivo
Plasmopara viticola = assay: Example 6 field trials, Vitis vinifera infected with downy mildew; details: 120 g a.c./ha
Venturia inaequalis = assay: Example 5 field trials, apple (Malus domestica var. Golden delicious) infected with scab; details: 60 g a.c./ha
Sphaerotheca fuliginea = assay: Example 3 field trial, cucumber (Cucumis sativus var. Bosco) infected with powdery mildew, Italy; details: 2080 g a.c./ha
Uncinula necator = assay: Example 12 field trial, Vitis vinifera var. Carignan infected with powdery mildew, France; details: 2320 g a.c./ha
Podosphaera leucotricha = assay: Example 13 field trials, apple (Malus domestica var. Gold Rush, var. Morgenduft Dallago) infected with powdery mildew; details: 2640 g a.c./ha

Q: Which “ZOX f.e. (%)” value (Plasmopara viticola; PESINC, location 1 (France, Negrette), 50 bunches, 1 DA-A6, BBCH 69) does the source give for CCC(C)(NC(=O)c1cc(Cl)c(C)c(Cl)c1)C(=O)CCl (racemic) [ZOX, (RS)-3,5-dichloro-N-(3-chloro-1-ethyl-1-methyl-2-oxopropyl)-ptoluamide] here?
A: 73.0%

Q: And the “ZOX f.e. (%)” value (Plasmopara viticola; PESINC, location 1 (France, Negrette), 50 bunches, 1 DA-A8, BBCH 75)?
A: 18.0%

Q: What about the “ZOX f.e. (%)” value (Plasmopara viticola; PESINC, location 1 (France, Negrette), 50 bunches, 16 DA-A9, BBCH 81) of the same molecule?
A: 1.0%

Q: What about the “ZOX f.e. (%)” value (Plasmopara viticola; PESINC, location 2 (France, Grenache), 50 bunches, 9 DA-A4, BBCH 71) of the same molecule?
A: 10.0%

Q: And the “ZOX f.e. (%)” value (Plasmopara viticola; PESINC, location 2 (France, Grenache), 50 bunches, 9 DA-A4, BBCH 77)?
A: 0.0%

Q: And the “ZOX f.e. (%)” value (Plasmopara viticola; PESINC, location 2 (France, Grenache), 100 leaves, 6 DA-A5, BBCH 77)?
A: 0.0%

Q: What about the “ZOX f.e. (%)” value (Plasmopara viticola; PESINC, location 2 (France, Grenache), 100 leaves, 9 DA-A4, BBCH 71) of the same molecule?
A: 22.8%

Q: What about the “ZOX f.e. (%)” value (Plasmopara viticola; PESINC, location 3 (Germany, Mueller-Thurgau), 50 bunches, 11 DA-A4, BBCH 75) of the same molecule?
A: 48.8%

Q: What about the “ZOX f.e. (%)” value (Plasmopara viticola; PESINC, location 3 (Germany, Mueller-Thurgau), 100 leaves, 7 DA-A8, BBCH 83) of the same molecule?
A: 16.0%

Q: What about the “ZOX f.e. (%)” value (Plasmopara viticola; PESINC, location 3 (Germany, Mueller-Thurgau), 100 leaves, 13 DA-A6, BBCH 83) of the same molecule?
A: 18.7%

Q: What about the “ZOX f.e. (%)” value (Plasmopara viticola; PESSEV, location 1 (France, Negrette), 50 bunches, 1 DA-A8, BBCH 75) of the same molecule?
A: 75.2%

Q: And the “ZOX f.e. (%)” value (Plasmopara viticola; PESSEV, location 1 (France, Negrette), 50 bunches, 16 DA-A9, BBCH 81)?
A: 51.7%

Q: What about the “ZOX f.e. (%)” value (Plasmopara viticola; PESSEV, location 2 (France, Grenache), 50 bunches, 8 DA-A5, BBCH 77) of the same molecule?
A: 21.4%

Q: And the “ZOX f.e. (%)” value (Plasmopara viticola; PESSEV, location 2 (France, Grenache), 50 bunches, 9 DA-A4, BBCH 71)?
A: 81.3%

Q: What about the “ZOX f.e. (%)” value (Plasmopara viticola; PESSEV, location 2 (France, Grenache), 50 bunches, 9 DA-A6, BBCH 79) of the same molecule?
A: 1.3%

Q: What about the “ZOX f.e. (%)” value (Plasmopara viticola; PESSEV, location 2 (France, Grenache), 100 leaves, 6 DA-A5, BBCH 77) of the same molecule?
A: 15.1%

Q: And the “ZOX f.e. (%)” value (Plasmopara viticola; PESSEV, location 2 (France, Grenache), 100 leaves, 9 DA-A4, BBCH 71)?
A: 67.7%

Q: And the “ZOX f.e. (%)” value (Plasmopara viticola; PESSEV, location 3 (Germany, Mueller-Thurgau), 50 bunches, 7 DA-A8, BBCH 83)?
A: 48.9%

Q: What about the “ZOX f.e. (%)” value (Plasmopara viticola; PESSEV, location 3 (Germany, Mueller-Thurgau), 50 bunches, 11 DA-A4, BBCH 75) of the same molecule?
A: 80.2%

Q: What about the “ZOX f.e. (%)” value (Plasmopara viticola; PESSEV, location 3 (Germany, Mueller-Thurgau), 50 bunches, 13 DA-A6, BBCH 83) of the same molecule?
A: 49.2%

Q: What about the “ZOX f.e. (%)” value (Plasmopara viticola; PESSEV, location 3 (Germany, Mueller-Thurgau), 100 leaves, 13 DA-A6, BBCH 83) of the same molecule?
A: 52.1%

Q: Which “ISO f.e. (%)” value (Venturia inaequalis; PESINC, location 1 (France), 6 DA-A4, BBCH 72) does the source give for Cc1cc(OC(C)C)ccc1C(=O)C(C)(C)NC(=O)c1sccc1C [ISO, N-[1,1-dimethyl-2-(4-isopropoxy-o-tolyl)-2-oxoethyl]-3-methylthiophene-2-carboxamide] here?
A: 13.3%

Q: And the “ISO f.e. (%)” value (Venturia inaequalis; PESINC, location 2 (Italy), 4 DA-A11, BBCH 75)?
A: 4.1%

Q: What about the “ISO f.e. (%)” value (Venturia inaequalis; PESINC, location 2 (Italy), 6 DA-A9, BBCH 74) of the same molecule?
A: 12.1%

Q: What about the “ISO f.e. (%)” value (Venturia inaequalis; PESINC, location 2 (Italy), 6 DA-A13, BBCH 77) of the same molecule?
A: 5.5%

Q: And the “ISO f.e. (%)” value (Venturia inaequalis; PESINC, location 2 (Italy), 7 DA-A6, BBCH 72)?
A: 16.8%

Q: And the “ISO f.e. (%)” value (Venturia inaequalis; PESINC, location 3 (Belgium), 31 DA-A9, BBCH 73)?
A: 8.7%

Q: What about the “ISO f.e. (%)” value (Venturia inaequalis; PESINC, location 3 (Belgium), 80 DA-A9, BBCH 73) of the same molecule?
A: 2.2%

Q: And the “ISO f.e. (%)” value (Venturia inaequalis; PESSEV, location 2 (Italy), 4 DA-A11, BBCH 75)?
A: 22.6%

Q: What about the “ISO f.e. (%)” value (Venturia inaequalis; PESSEV, location 2 (Italy), 6 DA-A9, BBCH 74) of the same molecule?
A: 25.3%

Q: What about the “ISO f.e. (%)” value (Venturia inaequalis; PESSEV, location 2 (Italy), 6 DA-A13, BBCH 77) of the same molecule?
A: 27.7%

Q: And the “ISO f.e. (%)” value (Venturia inaequalis; PESSEV, location 2 (Italy), 7 DA-A6, BBCH 72)?
A: 32.9%

Q: S1SSSSSSS1 [S, sulphur] was tested. Which “S f.e. (%)” value (Sphaerotheca fuliginea; PESINC curative, 7 DA-A2, BBCH 73) did it give?
A: 85.1%

Q: What about the “S f.e. (%)” value (Sphaerotheca fuliginea; PESINC curative, 7 DA-A3, BBCH 76) of the same molecule?
A: 87.5%

Q: And the “S f.e. (%)” value (Sphaerotheca fuliginea; PESINC curative, 7 DA-A4, BBCH 77)?
A: 77.5%

Q: What about the “S f.e. (%)” value (Sphaerotheca fuliginea; PESINC curative, 14 DA-A4, BBCH 78) of the same molecule?
A: 58.9%

Q: And the “S f.e. (%)” value (Sphaerotheca fuliginea; PESINC, 7 DA-A2, BBCH 73)?
A: 88.1%

Q: And the “S f.e. (%)” value (Sphaerotheca fuliginea; PESINC, 7 DA-A3, BBCH 76)?
A: 95%

Q: And the “S f.e. (%)” value (Sphaerotheca fuliginea; PESINC, 7 DA-A4, BBCH 77)?
A: 85.0%

Q: What about the “S f.e. (%)” value (Sphaerotheca fuliginea; PESINC, 14 DA-A4, BBCH 78) of the same molecule?
A: 75.2%

Q: And the “S f.e. (%)” value (Sphaerotheca fuliginea; PESINC, 21 DA-A4, BBCH 79)?
A: 69.7%

Q: And the “S f.e. (%)” value (Sphaerotheca fuliginea; PESSEV curative, 7 DA-A2, BBCH 73)?
A: 93.6%

Q: And the “S f.e. (%)” value (Sphaerotheca fuliginea; PESSEV curative, 7 DA-A3, BBCH 76)?
A: 96%

Q: What about the “S f.e. (%)” value (Sphaerotheca fuliginea; PESSEV curative, 7 DA-A4, BBCH 77) of the same molecule?
A: 95%

Q: What about the “S f.e. (%)” value (Sphaerotheca fuliginea; PESSEV curative, 14 DA-A4, BBCH 78) of the same molecule?
A: 93.4%

Q: What about the “S f.e. (%)” value (Sphaerotheca fuliginea; PESSEV, 7 DA-A2, BBCH 73) of the same molecule?
A: 96.7%

Q: What about the “S f.e. (%)” value (Sphaerotheca fuliginea; PESSEV, 7 DA-A4, BBCH 77) of the same molecule?
A: 97.6%

Q: And the “S f.e. (%)” value (Sphaerotheca fuliginea; PESSEV, 14 DA-A4, BBCH 78)?
A: 96.3%

Q: What about the “S f.e. (%)” value (Sphaerotheca fuliginea; PESSEV, 21 DA-A4, BBCH 79) of the same molecule?
A: 96.9%

Q: What about the “S f.e. (%)” value (Uncinula necator; PESINC, 50 bunches, 14 DA-A3, BBCH 77) of the same molecule?
A: 5.1%

Q: And the “S f.e. (%)” value (Uncinula necator; PESINC, 50 bunches, 14 DA-A3, BBCH 77, second listing (r34))?
A: 1.2%

Q: What about the “S f.e. (%)” value (Uncinula necator; PESINC, 50 bunches, 14 DA-A5, BBCH 83) of the same molecule?
A: 37.6%

Q: What about the “S f.e. (%)” value (Uncinula necator; PESINC, 50 bunches, 14 DA-A5, BBCH 83, second listing (r36)) of the same molecule?
A: 0%

Q: And the “S f.e. (%)” value (Uncinula necator; PESINC, 100 leaves, 14 DA-A3, BBCH 77)?
A: 42.8%

Q: And the “S f.e. (%)” value (Uncinula necator; PESINC, 100 leaves, 14 DA-A3, BBCH 77, second listing (r32))?
A: 6.3%

Q: What about the “S f.e. (%)” value (Uncinula necator; PESSEV, 50 bunches, 14 DA-A3, BBCH 77) of the same molecule?
A: 50.8%

Q: And the “S f.e. (%)” value (Uncinula necator; PESSEV, 50 bunches, 14 DA-A3, BBCH 77, second listing (r28))?
A: 6.0%

Q: What about the “S f.e. (%)” value (Uncinula necator; PESSEV, 50 bunches, 14 DA-A5, BBCH 83) of the same molecule?
A: 14.2%

Q: What about the “S f.e. (%)” value (Uncinula necator; PESSEV, 50 bunches, 14 DA-A5, BBCH 83, second listing (r30)) of the same molecule?
A: 18.9%

Q: And the “S f.e. (%)” value (Uncinula necator; PESSEV, 100 leaves, 14 DA-A3, BBCH 77)?
A: 18.7%

Q: What about the “S f.e. (%)” value (Uncinula necator; PESSEV, 100 leaves, 14 DA-A3, BBCH 77, second listing (r26)) of the same molecule?
A: 13.9%

Q: What about the “S f.e. (%)” value (Podosphaera leucotricha; PESINC, location 1 (France), 20 shoots, 7 DA-A5, BBCH 71) of the same molecule?
A: 80.0%

Q: What about the “S f.e. (%)” value (Podosphaera leucotricha; PESINC, location 1 (France), 100 leaves, 5 DA-A8, BBCH 74) of the same molecule?
A: 88.1%

Q: And the “S f.e. (%)” value (Podosphaera leucotricha; PESINC, location 1 (France), 100 leaves, 6 DA-A6, BBCH 74)?
A: 59.1%

Q: And the “S f.e. (%)” value (Podosphaera leucotricha; PESINC, location 1 (France), 100 leaves, 15 DA-A8, BBCH 76)?
A: 80.7%

Q: What about the “S f.e. (%)” value (Podosphaera leucotricha; PESINC, location 2 (Italy), 5 leaves, 5 DA-A6, BBCH 74) of the same molecule?
A: 63.9%

Q: And the “S f.e. (%)” value (Podosphaera leucotricha; PESINC, location 2 (Italy), 40 shoots, 2 DA-A10, BBCH 74)?
A: 62.4%

Q: What about the “S f.e. (%)” value (Podosphaera leucotricha; PESINC, location 2 (Italy), 40 shoots, 6 DA-A5, BBCH 71) of the same molecule?
A: 57.8%

Q: And the “S f.e. (%)” value (Podosphaera leucotricha; PESINC, location 2 (Italy), 40 shoots, 6 DA-A11, BBCH 74)?
A: 59.4%

Q: What about the “S f.e. (%)” value (Podosphaera leucotricha; PESSEV, location 1 (France), 100 leaves, 6 DA-A6, BBCH 74) of the same molecule?
A: 64.1%

Q: And the “S f.e. (%)” value (Podosphaera leucotricha; PESSEV, location 1 (France), 100 leaves, 15 DA-A8, BBCH 76)?
A: 88.2%

Q: What about the “S f.e. (%)” value (Podosphaera leucotricha; PESSEV, location 2 (Italy), 5 leaves, 2 DA-A10, BBCH 74) of the same molecule?
A: 82.1%

Q: What about the “S f.e. (%)” value (Podosphaera leucotricha; PESSEV, location 2 (Italy), 5 leaves, 5 DA-A6, BBCH 74) of the same molecule?
A: 72.7%

Q: And the “S f.e. (%)” value (Podosphaera leucotricha; PESSEV, location 2 (Italy), 5 leaves, 6 DA-A11, BBCH 74)?
A: 84.4%
